Target: T1, VHL (VBC complex), Hyp site (Homo sapiens, UniProt P40337)
T1 construct: equimolar complex of pVHL54-213, eloB1-104 and; made in house; host or cells: E. coli
Experiment: 19F NMR competition experiment, displacement of spy molecule 19
Format: binding
Details: 19 at 50 μM, VHL at 1.0 μM
Procedure: Lastly, the utility and scope of using spy molecule 19 to quantify binding of competitors across a wide range of affinities was evaluated (Fig. 5). Five compounds were titrated against 19 at 50 μM and VHL at 1.0 μM. In all cases the displacement of the spy molecule was concentration-dependent and the Ki (inhibition constant) values were derived from the respective IC50 using a competitive binding model.[12] The measured binding affinities compared remarkably well with the respective values obtained by SPR across 4-log units. The same experiment was attempted with spy molecules 6 and 11 under the same conditions, and in these cases, the assay could not differentiate the binders as efficiently (ESI, ^† Fig. S2–S4), since this would require higher protein concentration.
6. Competition experiments by 19F NMR
As full measurements of R2 would be very time consuming, the competition experiments were performed using a single 19F CPMG experiment (decoupled) per sample with a fixed CPMG delay. To determine the best CPMG delay for a given spy molecule and assay condition, the procedure described in Figure S5 was developed based on the transverse relaxation rate equations.[7] By knowing the relaxation rates of the spy molecule free in solution and in presence of protein, the CPMG delay where the difference between the NMR peaks is maximum is hereon referred as dmax. The dmax for all the conditions tested for each spy molecule can be found in section 8, together with the respective values of R2 and C2.
Method for selecting the best CPMG delay for competition experiments. With the transverse relaxation rates of the spy molecule free in solution (R2F, resulting in the blue plot) and bound to protein (R2B, resulting in the red plot), the difference between the two curves is described by I(t)D (cyan curve). To obtain dmax, the delay where the difference curve reaches its maximum, the first derivative of I(t)D was obtained and equalled to 0, subsequently isolating t (CPMG filter). […]

Row | Displacement of spy molecule 19 | Compound
1 | concentration dependent | CC(C)(C)CC(=O)N1C[C@H](O)C[C@H]1C(=O)NCc1ccc(Br)c(C(F)(F)F)c1 [Compound 3]
2 | concentration dependent | CC(=O)N1C[C@H](O)C[C@H]1C(=O)NCc1ccc(Br)cc1C(F)(F)F [Compound 10]
3 | concentration dependent | CC(=O)NC(C(=O)N1CC(O)CC1C(=O)NCc1ccc(Br)cc1C(F)(F)F)C(C)(C)C (stereo not drawn) [Compound 12]

Source: publication PMC6369734, “Spy vs. spy: selecting the best reporter for ^19F NMR competition experiments” (Chemical Communications (Cambridge, England), 2019)
